Measurements from patent US12473262B2, “Aryl hydrocarbon receptor activators” (Oregon State University, priority 2019, dated 2025).

Target: aryl hydrocarbon receptor (AhR) (Mus musculus (Mouse), UniProt P30561)
Experiment: AhR ligand screening: AhRE-luciferase reporter in transfected Hepa1 cells
Format: cell-based
Settings: for Fold @ 1 nM: fold change of luciferase expression at 1 nM test compound relative to vehicle (0.1% DMSO); for Fold @ 100 nM: fold change of luciferase expression at 100 nM test compound relative to vehicle (0.1% DMSO); for Fold @ 10 uM: fold change of luciferase expression at 10 uM test compound relative to vehicle (0.1% DMSO); for Fold relative to benchmark @ 100 nM: luciferase expression at 100 nM test compound relative to 100 nM benchmark compound 11-cl-BBQ
How it was run: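 Values are fold luciferase induction relative to vehicle (0.1% DMSO), read by luminometry of lysates from Hepa1 cells carrying an AhRE-driven luciferase reporter. Cells were seeded at 1×10^4 per well, grown overnight and treated with compound before lysis.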

Chain of aryl hydrocarbon receptor (AhR) (P30561 10-805): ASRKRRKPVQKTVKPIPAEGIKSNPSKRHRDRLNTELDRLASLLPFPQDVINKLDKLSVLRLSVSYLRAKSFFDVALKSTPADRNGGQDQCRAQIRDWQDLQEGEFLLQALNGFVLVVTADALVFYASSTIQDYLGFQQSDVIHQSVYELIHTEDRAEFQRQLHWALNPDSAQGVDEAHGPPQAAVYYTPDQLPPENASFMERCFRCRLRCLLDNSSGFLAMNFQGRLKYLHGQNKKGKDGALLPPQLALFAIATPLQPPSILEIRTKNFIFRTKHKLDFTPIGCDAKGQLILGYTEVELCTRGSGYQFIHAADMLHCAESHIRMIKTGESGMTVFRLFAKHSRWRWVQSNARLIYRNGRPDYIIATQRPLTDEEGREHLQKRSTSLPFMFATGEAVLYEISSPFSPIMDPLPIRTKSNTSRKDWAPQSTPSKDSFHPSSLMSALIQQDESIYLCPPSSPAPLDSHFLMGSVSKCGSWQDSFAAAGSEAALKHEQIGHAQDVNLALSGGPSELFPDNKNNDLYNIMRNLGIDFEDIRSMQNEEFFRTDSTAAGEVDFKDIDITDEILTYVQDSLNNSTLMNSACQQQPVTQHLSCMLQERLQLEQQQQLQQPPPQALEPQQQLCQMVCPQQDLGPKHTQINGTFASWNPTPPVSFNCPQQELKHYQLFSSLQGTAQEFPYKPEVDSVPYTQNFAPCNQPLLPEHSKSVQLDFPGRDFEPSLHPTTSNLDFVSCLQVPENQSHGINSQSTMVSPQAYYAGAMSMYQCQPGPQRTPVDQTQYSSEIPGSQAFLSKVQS
Chain of aryl hydrocarbon receptor (AhR) (P53762 whole entry partner): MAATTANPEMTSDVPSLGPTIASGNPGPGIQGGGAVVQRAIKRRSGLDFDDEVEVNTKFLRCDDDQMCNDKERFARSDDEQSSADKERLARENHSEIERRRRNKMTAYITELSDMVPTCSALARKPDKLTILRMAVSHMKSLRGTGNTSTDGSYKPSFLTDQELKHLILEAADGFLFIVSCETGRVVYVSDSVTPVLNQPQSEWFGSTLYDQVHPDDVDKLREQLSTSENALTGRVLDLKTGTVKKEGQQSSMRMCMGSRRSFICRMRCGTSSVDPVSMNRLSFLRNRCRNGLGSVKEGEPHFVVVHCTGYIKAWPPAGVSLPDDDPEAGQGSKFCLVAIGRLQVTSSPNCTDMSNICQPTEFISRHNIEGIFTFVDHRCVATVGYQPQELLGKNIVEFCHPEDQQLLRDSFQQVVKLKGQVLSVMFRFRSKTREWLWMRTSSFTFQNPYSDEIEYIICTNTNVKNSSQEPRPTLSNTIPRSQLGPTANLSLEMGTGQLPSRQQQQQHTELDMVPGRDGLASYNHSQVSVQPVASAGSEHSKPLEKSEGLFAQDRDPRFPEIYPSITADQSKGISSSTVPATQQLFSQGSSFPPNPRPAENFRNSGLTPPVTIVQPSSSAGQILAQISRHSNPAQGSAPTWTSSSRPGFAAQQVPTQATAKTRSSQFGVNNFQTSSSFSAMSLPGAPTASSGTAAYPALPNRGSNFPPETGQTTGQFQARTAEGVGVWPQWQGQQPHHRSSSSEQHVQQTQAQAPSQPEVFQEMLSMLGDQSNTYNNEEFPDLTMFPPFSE

Structure (SMILES)	Fold @ 1 nM	Fold @ 100 nM	Fold @ 10 uM	Fold relative to benchmark @ 100 nM
O=C(c1ccc(F)c(F)c1)n1c(-c2csc3ccccc23)nc2ccc(Cl)cc21 [Compound 862]	1 fold	2 fold	82 fold	0.07 fold
O=C(c1ccc(F)c(F)c1)n1c(-c2cccc(C(F)(F)F)c2)nc2cc(Cl)ccc21 [Compound 788]	1 fold	2 fold	19 fold	0.08 fold
Cc1ccc(S(=O)(=O)n2c(-c3cccc4ccccc34)nc3ccc(Cl)cc32)cc1 [Compound 528, 6-chloro-2-(naphthalen-1-yl)-1-tosyl-1H-benzo[d]imidazole]	1 fold	19 fold	35 fold	0.48 fold
O=C(c1ccc(F)c(F)c1)n1c(-c2cc3ccccc3o2)nc2ccc(Cl)cc21 [Compound 858]	1 fold	10 fold	73 fold	0.34 fold
Fc1ccc(Cn2c(-c3cccc4ccccc34)nc3ccc(Cl)cc32)cc1F [Compound 888]	1 fold	1 fold	9 fold	0.02 fold
O=C(c1ccc2c(c1)nc(-c1cccc3ccccc13)n2Cc1ccc(SC(F)(F)F)cc1)N1CCCCC1 [Compound 1411]	1 fold	1 fold	4 fold	0.03 fold
O=C(c1cccc2ccccc12)n1c(-c2ccccc2)nc2cc(Cl)ccc21 [Compound 490, (5-chloro-2-phenyl-1H-benzo[d]imidazol-1-yl)(naphthalen-1-yl)methanone]	1 fold	1 fold	17 fold	0.03 fold
O=C(c1ccc(F)c(F)c1)n1c(-c2cccc3c2CCCC3)nc2ccc(Cl)cc21 [Compound 780]	1 fold	1 fold	7 fold	0.04 fold
COc1ccc2c(c1)nc(-c1cccc3ccccc13)n2C(=O)c1ccccc1 [Compound 639]	1 fold	1 fold	5 fold	0.11 fold
O=C(c1ccncc1)n1c(-c2ccccc2)nc2ccc(Cl)cc21 [Compound 431]	1 fold	1 fold	8 fold	0.03 fold
O=C(c1ccc(F)c(F)c1)n1c(-c2csc3ccccc23)nc2cc(Cl)ccc21 [Compound 861]	1 fold	2 fold	90 fold	0.07 fold
Clc1ccc2nc(-c3cccc4ccccc34)n(Cc3ccnc4ccccc34)c2c1 [Compound 868]	1 fold	2 fold	28 fold	0.07 fold
COC(=O)c1ccc2c(c1)nc(-c1cccc3ccccc13)n2Cc1ccc(F)c(F)c1 [Compound 1338]	1 fold	1 fold	2 fold	0.03 fold
COC(=O)c1ccc2c(c1)nc(-c1cccc3ccccc13)n2S(=O)(=O)c1ccc(C(F)(F)F)cc1 [Compound 1401]	1 fold	1 fold	2 fold	0.03 fold
COc1ccc(C(=O)n2c(-c3cc4ccccc4s3)nc3ccc(Cl)cc32)cc1 [Compound 591]	2 fold	2 fold	38 fold	0.13 fold
COC(=O)c1ccc2nc(-c3cccc4ccccc34)n(S(=O)(=O)c3ccc(C#N)cc3)c2c1 [Compound 1362]	5 fold	3 fold	18 fold	0.1 fold
O=C(c1ccccc1)n1c(-c2ccc3ccccc3c2)nc2cc(F)ccc21 [Compound 584]	1 fold	3 fold	31 fold	0.2 fold
N#Cc1ccc(C(=O)c2c[nH]c3ccc(Cl)cc23)cc1 [Compound 874]	1 fold	7 fold	52 fold	0.13 fold
N#Cc1ccc(C(=O)n2c(-c3cccc4ccccc34)nc3ccc(Cl)cc32)cc1 [Compound 689]	1 fold	28 fold	47 fold	1.08 fold
O=C(c1ccc2nc(-c3cccc4ccccc34)n(S(=O)(=O)c3ccc(Cl)cc3)c2c1)N1CCCCC1 [Compound 1367]	1 fold	1 fold	3 fold	0.03 fold
O=C(c1ccc2nc(-c3cccc4ccccc34)n(S(=O)(=O)c3cccc(F)c3)c2c1)N1CCCCC1 [Compound 1369]	1 fold	1 fold	2 fold	0.03 fold
O=C(c1ccc2nc(-c3cccc4ccccc34)n(Cc3ccc(SC(F)(F)F)cc3)c2c1)N1CCCCC1 [Compound 1412]	1 fold	1 fold	6 fold	0.03 fold
O=C(c1ccc2c(c1)nc(-c1cccc3ccccc13)n2Cc1ccc(F)cc1)N1CCOCC1 [Compound 1403]	1 fold	2 fold	20 fold	0.07 fold
O=C1c2ccccc2-c2nc3cc(Cl)ccc3n21 [Compound 489, 5-chloro-1,8-diazatetracyclo-[7.7.0.0^2,70.^10,15]hexadeca-2,4,6,8,10,12,14-heptaen-16-one]	1 fold	1 fold	5 fold	0.03 fold
CC(C)(C)c1cccc(-c2nc3cc(Cl)ccc3n2C(=O)c2ccc(F)c(F)c2)c1 [Compound 787]	1 fold	1 fold	4 fold	0.04 fold
O=C(c1ccc2nc(-c3cccc4ccccc34)n(S(=O)(=O)c3ccc4ccccc4c3)c2c1)N1CCCCC1 [Compound 1341]	1 fold	1 fold	5 fold	0.03 fold
O=C(c1ccc(F)c(F)c1)n1c(-c2cccc(-c3ccccc3)c2)nc2cc(Cl)ccc21 [Compound 771]	1 fold	1 fold	2 fold	0.04 fold
O=C(C1CC1)n1c(-c2cccc3ccccc23)nc2cc(Cl)ccc21 [Compound 773]	1 fold	25 fold	40 fold	1 fold
